≈ marks a conversion by molar mass, not a printed value. Where “and” joins values, the source holds several entries; their conditions need not be identical. Equal entries are not always repeated. Residues, ends and D or L forms follow the SMILES beside them.
What was measured:
S. pyogenes ATCC 19615 = assay: MIC/MBC broth microdilution, S. pyogenes; format: cell-based, Streptococcus pyogenes; settings: S. pyogenes
Procedure, shortened: (§1)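 BHI broth microdilution (NCCLS); ~10^5 CFU/mL; 37 °C, 18 h. MIC = lowest conc., no visible growth (≥90% vs untreated). MBC = ≤3 colonies, ≥99.9% kill. Water/DMSO/EtOH solvent controls; technical triplicate ×3 biological repeats.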

S. cohnii c.i. = assay: MIC/MBC broth microdilution, S. cohnii; format: cell-based, Staphylococcus cohnii
Procedure, shortened: as §1

E. faecalis c.i. = assay: MIC/MBC broth microdilution, E. faecalis; format: cell-based, Enterococcus faecalis
Procedure, shortened: as §1

S. schleiferi c.i. = assay: MIC/MBC broth microdilution, S. schleiferi; format: cell-based, Staphylococcus schleiferi
Procedure, shortened: as §1

S. agalactiae ATCC 27956 = assay: MIC/MBC broth microdilution, S. agalactiae; format: cell-based, Streptococcus agalactiae; settings: S. agalactiae
Procedure, shortened: as §1

S. mutans c.i. = assay: MIC/MBC broth microdilution, S. mutans; format: cell-based, Streptococcus mutans
Procedure, shortened: as §1

E. coli ATCC 25922 = assay: MIC/MBC broth microdilution, E. coli; format: cell-based, Escherichia coli
Procedure, shortened: as §1

P. vulgaris ATCC 6896 = assay: MIC/MBC broth microdilution, P. vulgaris; format: cell-based, Proteus vulgaris
Procedure, shortened: as §1

P. aeruginosa ATCC 10145 = assay: MIC/MBC broth microdilution, P. aeruginosa; format: cell-based
Procedure, shortened: as §1

[1] = Stability / presence in human plasma; format: in vitro ADME; settings: 24 h incubation at 37 °C
Experimental: Blood was drawn from healthy volunteers, and lithium/heparin holding tubes were used to remove the clot by centrifugation. The plasma was aliquoted in sterile conditions and incubated with the desired compounds for 24 h at 37 °C. The samples were prepared under sterile conditions following the previously described protocol. The samples were collected at six time points (0, 1, 2, 3, 6, and 24 h) for determining stability in water solutions, and time points of 0, 10, 20, 30, 40, 50, and 60 min, as well as of 2, 3, 6, and 24 h, for determining stability in human plasma. The analysis was performed by HPLC using a Kromasil C8 column (5 μm, 90 Å, 1.0 mm × 250 mm) monitored by a PDA or ELDS-LT II detector. For quantification, peak areas were compared to a calibration curve calculated by Shimadzu LCsolution Software (Kyoto, Japan). Graphs were prepared in GraphPad Prism (Boston, USA).

[2] = tested on: immortalized human keratinocytes (HaCaT); assay: LDH cytotoxicity test, keratinocytes; format: cell-based; settings: for cytotoxicity (LDH), in words: 50-150 μg/mL
Procedure, shortened: (§2)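 Cytotoxicity as LDH release after 48 h serum-free treatment (50, 100, 150 μg/mL peptidomimetics) of 46BR.1N fibroblasts or HaCaT keratinocytes seeded at 5000 per well. Absorbance 450 nm; untreated set as 0% and Triton X-100 1% as maximal release; Mann–Whitney U test, p ≤ 0.05.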

fibroblasts (46BR.1N) = assay: LDH cytotoxicity test, fibroblasts; format: cell-based; settings: for cytotoxicity (LDH), in words: 50-150 μg/mL
Procedure, shortened: as §2

[3] = 48 h, 50, 100 and 150 μg/mL, vs 1% Triton X-100

## CC(C)[C@H](NC(=O)[C@H](Cc1c[nH]cn1)NC(=O)[C@H](CCCNC(=N)N)NC(=O)OCc1ccccc1)C(=O)NCCc1ccccc1 [Compound A-219] (HELM PEPTIDE1{[O=C(OCc1ccccc1)[*:2]].R.H.V.[c1ccc(CCN[*:1])cc1]}$$$$V2.0)
S. pyogenes ATCC 19615; H2O
  MBC: 512 µg/mL (≈ 790 µM)
  MIC: 512 µg/mL (≈ 790 µM)
S. pyogenes ATCC 19615; water additive DMSO
  MBC: 512 µg/mL (≈ 790 µM)
  MIC: 512 µg/mL (≈ 790 µM)
S. pyogenes ATCC 19615; water additive EtOH
  MBC: 512 µg/mL (≈ 790 µM)
  MIC: 512 µg/mL (≈ 790 µM)
S. cohnii c.i.; H2O
  MIC: > 512 µg/mL
S. cohnii c.i.; water additive DMSO
  MIC: > 512 µg/mL
S. cohnii c.i.; water additive EtOH
  MIC: > 512 µg/mL
E. faecalis c.i.; H2O
  MIC: > 512 µg/mL
E. faecalis c.i.; water additive DMSO
  MIC: > 512 µg/mL
E. faecalis c.i.; water additive EtOH
  MIC: > 512 µg/mL
S. schleiferi c.i.; H2O
  MIC: > 512 µg/mL
S. schleiferi c.i.; water additive DMSO
  MIC: > 512 µg/mL
S. schleiferi c.i.; water additive EtOH
  MIC: > 512 µg/mL
S. agalactiae ATCC 27956; H2O
  MIC: > 512 µg/mL
S. agalactiae ATCC 27956; water additive DMSO
  MIC: > 512 µg/mL
S. agalactiae ATCC 27956; water additive EtOH
  MIC: > 512 µg/mL
S. mutans c.i.; H2O
  MIC: > 512 µg/mL
S. mutans c.i.; water additive DMSO
  MIC: > 512 µg/mL
S. mutans c.i.; water additive EtOH
  MIC: > 512 µg/mL
E. coli ATCC 25922; H2O
  MIC: > 512 µg/mL
E. coli ATCC 25922; water additive DMSO
  MIC: > 512 µg/mL
E. coli ATCC 25922; water additive EtOH
  MIC: > 512 µg/mL
P. vulgaris ATCC 6896; H2O
  MIC: > 512 µg/mL
P. vulgaris ATCC 6896; water additive DMSO
  MIC: > 512 µg/mL
P. vulgaris ATCC 6896; water additive EtOH
  MIC: > 512 µg/mL
P. aeruginosa ATCC 10145; H2O
  MBC: > 512 µg/mL
  MIC: 512 µg/mL (≈ 790 µM)
P. aeruginosa ATCC 10145; water additive DMSO
  MBC: 512 µg/mL (≈ 790 µM)
  MIC: 256 µg/mL (≈ 395 µM)
P. aeruginosa ATCC 10145; water additive EtOH
  MBC: > 512 µg/mL
  MIC: 512 µg/mL (≈ 790 µM)
[1]
  present in human plasma: 85–90%
[2]; 48 h
  cytotoxicity (LDH), in words: no adverse effects
Fibroblasts (46BR.1N); 48 h
  cytotoxicity (LDH), in words: slight cytotoxicity

## CC(C)[C@H](NC(=O)[C@H](Cc1c[nH]cn1)NC(=O)[C@H](CCCCN)NC(=O)OCc1ccccc1)C(=O)NCCc1ccccc1 [Compound A-220] (HELM PEPTIDE1{[O=C(OCc1ccccc1)[*:2]].K.H.V.[c1ccc(CCN[*:1])cc1]}$$$$V2.0)
S. pyogenes ATCC 19615; H2O
  MBC: > 512 µg/mL
  MIC: 512 µg/mL (≈ 826 µM)
S. pyogenes ATCC 19615; water additive DMSO
  MBC: 256 µg/mL (≈ 413 µM)
S. pyogenes ATCC 19615; water additive EtOH
  MBC: 512 µg/mL (≈ 826 µM)
  MIC: 512 µg/mL (≈ 826 µM)
S. cohnii c.i.; H2O
  MBC: 512 µg/mL (≈ 826 µM)
  MIC: 256 µg/mL (≈ 413 µM)
S. cohnii c.i.; water additive DMSO
  MBC: 512 µg/mL (≈ 826 µM)
  MIC: 256 µg/mL (≈ 413 µM)
S. cohnii c.i.; water additive EtOH
  MBC: 512 µg/mL (≈ 826 µM)
  MIC: 256 µg/mL (≈ 413 µM)
E. faecalis c.i.; H2O
  MIC: > 512 µg/mL
E. faecalis c.i.; water additive DMSO
  MIC: > 512 µg/mL
E. faecalis c.i.; water additive EtOH
  MIC: > 512 µg/mL
S. schleiferi c.i.; H2O
  MIC: > 512 µg/mL
S. schleiferi c.i.; water additive DMSO
  MIC: > 512 µg/mL
S. schleiferi c.i.; water additive EtOH
  MIC: > 512 µg/mL
S. agalactiae ATCC 27956; H2O
  MBC: 512 µg/mL (≈ 826 µM)
  MIC: 512 µg/mL (≈ 826 µM)
S. agalactiae ATCC 27956; water additive DMSO
  MBC: 512 µg/mL (≈ 826 µM)
  MIC: 512 µg/mL (≈ 826 µM)
S. agalactiae ATCC 27956; water additive EtOH
  MBC: 512 µg/mL (≈ 826 µM)
  MIC: 512 µg/mL (≈ 826 µM)
S. mutans c.i.; H2O
  MBC: 512 µg/mL (≈ 826 µM)
  MIC: 256 µg/mL (≈ 413 µM)
S. mutans c.i.; water additive DMSO
  MIC: > 512 µg/mL
S. mutans c.i.; water additive EtOH
  MIC: > 512 µg/mL
E. coli ATCC 25922; H2O
  MBC: 512 µg/mL (≈ 826 µM)
  MIC: 512 µg/mL (≈ 826 µM)
E. coli ATCC 25922; water additive DMSO
  MIC: > 512 µg/mL
E. coli ATCC 25922; water additive EtOH
  MBC: 512 µg/mL (≈ 826 µM)
  MIC: 512 µg/mL (≈ 826 µM)
P. vulgaris ATCC 6896; H2O
  MIC: > 512 µg/mL
P. vulgaris ATCC 6896; water additive DMSO
  MIC: > 512 µg/mL
P. vulgaris ATCC 6896; water additive EtOH
  MIC: > 512 µg/mL
P. aeruginosa ATCC 10145; H2O
  MBC: > 512 µg/mL
  MIC: 512 µg/mL (≈ 826 µM)
P. aeruginosa ATCC 10145; water additive DMSO
  MBC: > 512 µg/mL
  MIC: 512 µg/mL (≈ 826 µM)
P. aeruginosa ATCC 10145; water additive EtOH
  MBC: > 512 µg/mL
  MIC: 512 µg/mL (≈ 826 µM)
[1]
  present in human plasma: 85–90%
[2]; [3]
  cytotoxicity (LDH): 10–15% and 10%
[2]; LDH, 48 h
  concentration at which cytotoxic effect starts: > 150 µg/mL
Fibroblasts (46BR.1N); [3]
  cytotoxicity (LDH): 10–15% and 10%
Fibroblasts (46BR.1N); LDH, 48 h
  concentration at which cytotoxic effect starts: > 150 µg/mL

## CC(C)[C@H](NC(=O)[C@H](CCCNC(=N)N)NC(=O)[C@H](CCCNC(=N)N)NC(=O)OCc1ccccc1)C(=O)NCCc1ccccc1 [Compound A-221] (HELM PEPTIDE1{[O=C(OCc1ccccc1)[*:2]].R.R.V.[c1ccc(CCN[*:1])cc1]}$$$$V2.0)
S. pyogenes ATCC 19615; H2O
  MBC: 256 µg/mL (≈ 384 µM)
S. pyogenes ATCC 19615; water additive DMSO
  MBC: > 512 µg/mL
  MIC: 512 µg/mL (≈ 768 µM)
S. pyogenes ATCC 19615; water additive EtOH
  MBC: 256 µg/mL (≈ 384 µM)
S. cohnii c.i.; H2O
  MBC: 256 µg/mL (≈ 384 µM)
S. cohnii c.i.; water additive DMSO
  MBC: 256 µg/mL (≈ 384 µM)
S. cohnii c.i.; water additive EtOH
  MBC: 256 µg/mL (≈ 384 µM)
E. faecalis c.i.; H2O
  MIC: > 512 µg/mL
E. faecalis c.i.; water additive DMSO
  MIC: > 512 µg/mL
E. faecalis c.i.; water additive EtOH
  MIC: > 512 µg/mL
S. schleiferi c.i.; H2O
  MIC: > 512 µg/mL
S. schleiferi c.i.; water additive DMSO
  MIC: > 512 µg/mL
S. schleiferi c.i.; water additive EtOH
  MIC: > 512 µg/mL
S. agalactiae ATCC 27956; H2O
  MBC: 512 µg/mL (≈ 768 µM)
  MIC: 256 µg/mL (≈ 384 µM)
S. agalactiae ATCC 27956; water additive DMSO
  MBC: 512 µg/mL (≈ 768 µM)
  MIC: 256 µg/mL (≈ 384 µM)
S. agalactiae ATCC 27956; water additive EtOH
  MBC: 512 µg/mL (≈ 768 µM)
  MIC: 256 µg/mL (≈ 384 µM)
S. mutans c.i.; H2O
  MIC: > 512 µg/mL
S. mutans c.i.; water additive DMSO
  MIC: > 512 µg/mL
S. mutans c.i.; water additive EtOH
  MIC: > 512 µg/mL
E. coli ATCC 25922; H2O
  MIC: > 512 µg/mL
E. coli ATCC 25922; water additive DMSO
  MIC: > 512 µg/mL
E. coli ATCC 25922; water additive EtOH
  MIC: > 512 µg/mL
P. vulgaris ATCC 6896; H2O
  MIC: > 512 µg/mL
P. vulgaris ATCC 6896; water additive DMSO
  MIC: > 512 µg/mL
P. vulgaris ATCC 6896; water additive EtOH
  MIC: > 512 µg/mL
P. aeruginosa ATCC 10145; H2O
  MBC: 256 µg/mL (≈ 384 µM)
P. aeruginosa ATCC 10145; water additive DMSO
  MIC: 32 µg/mL (≈ 48 µM)
[1]
  present in human plasma: 85–90%
[2]; 48 h
  cytotoxicity (LDH), in words: no adverse effects
Fibroblasts (46BR.1N); 48 h
  cytotoxicity (LDH), in words: slight cytotoxicity

Source: PMC12332667, “Role of Structural Modifications in Peptidomimetic Compounds as Potential Antimicrobial Agents against Staphylococcus aureus and Streptococcus pyogenes: Balancing Bioavailability, Safety, and Antimicrobial Activity” (ACS Omega, 2025)
